# Experiment: Experimental gradient RP-LC retention time of peptides (LC-ESI-MS/MS)
# Format: physicochemical
# Conditions: Table 1, model peptides; gradient RP-LC, XTerra MS C18 3.5 μm 2.1 × 100 mm, 0-60% ACN with 0.1% TFA, linear 90 min, 200 μL/min, 20°C, ESI-MS/MS, at peak intensity maximum
# Experimental: The chromatographic analysis was performed on C-18 analytical column: XTerra MS C18 3.5 μm (2.1 × 100 mm) column (Waters, Milford, MA, USA).
# The mobile phase consisted of two solvents (A and B) mixed on-line. Solvent A was 0.1% aqueous (water was MS-grade) solution of trifluoroacetic acid (TFA) (Sigma-Aldrich, Steinheim, Germany) and solvent B was acetonitrile (ACN) (MS-grade, Sigma-Aldrich, Steinheim, Germany) containing 0.1% TFA. The applied linear gradient time was 90 min, from 0% B to 60% B. The flow rate was 200 μL/min. The injection volume was 10 μL. The LC-MS apparatus was equipped with thermostated column oven and surveyor autosampler controlled at 20°C (Thermo Finnigan, San Jose, CA, USA), a quaternary gradient Surveyor MS pump (Thermo Finnigan, San Jose, CA, USA) with a diode array detection (DAD) system, and LTQ linear ion trap MS system with ESI ion source controlled by Xcalibur software 1.4 (Thermo Finnigan, San Jose, CA, USA).
# The MS/MS analysis was performed on Finnigan LTQ instrument (Thermo Finnigan, San Jose, CA, USA). Mass spectra were generated in positive ion mode under constant instrumental conditions: source voltage 4.62 kV, capillary voltage 40.97 V, sheath gas flow rate 39.99 (arbitrary units), auxiliary gas flow 10 (arbitrary units), sweep gas flow 0.95 (arbitrary units), capillary temperature 219.96°C, and tube lens voltage 250.43 V. MS/MS spectra, obtained by CID (collision-induced dissociation) in the linear ion trap, were performed with an isolation width 3Da (m/z); the activation amplitude was 35% of ejection RF amplitude that corresponds to 1.58 V.
# The experimental retention times of the peptides (tR exp) were determined at peak intensity maximum. The m/z values measured manually for the most intense peaks in acquired MS/MS spectra were automatically searched against the protein database (*fasta) using the Sequest Algorithm, incorporated into Bioworks 3.0 (Thermo Finningan, San Jose, CA, USA). The *fasta format for each protein was downloaded from Expasy (http://www.expasy.org/sprot/).
row,Substance,tR exp [min]
1,AAFTECCQAADK [model peptide from tryptic digest of model protein 6],19.31
2,CCAAADPHECYAK [model peptide from tryptic digest of model protein 6],16.98
3,HIIVACEGNPYVPVHFDASV [model peptide from tryptic digest of model protein 7],32.15
4,NECFLQHK [model peptide from tryptic digest of model protein 6],19.67
5,QHMDSSTSAASSSNYCNQMMK [model peptide from tryptic digest of model protein 7],20.46
6,TCVADESAENCDK [model peptide from tryptic digest of model protein 6],15.32
7,VHTECCHGDLLECADDR [model peptide from tryptic digest of model protein 6],22.86
8,VHTECCHGDLLECADDRADLAK [model peptide from tryptic digest of model protein 6],24.98
9,YICENQDSISSK [model peptide from tryptic digest of model protein 6],18.06
10,YPNCAYK [model peptide from tryptic digest of model protein 7],16.78

# Same assay, conditions: Table 2, test peptides from model proteins; gradient RP-LC, XTerra MS C18, 0-60% ACN with 0.1% TFA in 90 min, 200 μL/min, 20°C, ESI-MS/MS
row,Substance,tR exp [min]
1,ETCFAEEGKK [test peptide from tryptic digest of model protein 6],16.58
2,NVACK [test peptide from tryptic digest of model protein 7],8.38

# Same assay, conditions: Table 5, Bacillus subtilis proteome peptides, one peptide, Xcorr below 1.5; gradient RP-LC, XTerra MS C18, 0-60% ACN with 0.1% TFA in 90 min, 200 μL/min, 20°C, ESI-MS/MS
row,Substance,tR exp [min]
1,AQLSEKKGADGYL,26.46
2,DGITDVL,93.5
3,DGWKVCLGKVGSMDAHKVVAAIETASKKSG,37.72
4,ELSASMG,18.33
5,EPIQSFFQID,51.92
6,GIIAAYG,89.29
7,GQEQLIPPLIL,81.34
8,HGGSLSAPAIH,97.03
9,IDFPTNITMD,96.80
10,IGLLIFLP,93.97
11,IHTLEHLLAFTI,81.04
12,KIDKSIFPGIQGGPLMH,12.03
13,LAAGISTI,92.62
14,LTELQVRHII,48.06
15,NRAVGFISFVI,58.59
16,PIITVAKEAWPTL,83.17
17,PQTPVP,80.37
18,TGALIVYTSADSVLQIAAHEEVVPLEE,52.12

# Same assay, conditions: experimental gradient HPLC retention time (LC-ESI-MS/MS); Table 4 test peptides
row,Substance,tR exp [min]
1,AAEMAVARQNEQKVKK,29.44
2,DIMSPSR,14.30
3,DRVFIAPVGGGPR,29.82
4,EAEELIPNVTTAAVK,29.18
5,EGTVIKELIGAGQLDEK,29.49
6,ELQEKFLIPAVEQKK,29.27
7,EVMIEGVLSVLEGQAPK,29.51
8,GHNPGQPEPLSGSK,17.05
9,GNQVSENLQQAAR,20.52
10,HSSDEEPFSALAFK,33.16
11,IDIALESKK,18.04
12,IDNLSYYIEQEYK,30.89
13,INIMSAR,14.23
14,LALDLESKK,18.01
15,LEIASEFGVNLGADTTSR,33.12
16,LIDKHKKYVYHRINK,29.00
17,LNSLDSR,14.29
18,NIAEMVK,14.25
19,NLLFAAR,14.27
20,QDIPIEARMNEIVHSLK,29.33
21,SGETEDSTIADIAVATNAGQIK,30.05
22,SGSIESIDVSLTDLR,33.05
23,SHTGKAAVLNR,24.54
24,VVVSVNTDQDQAQAQSQDGED,19.37

# Reference: article PMC2801521, “Correctness of Protein Identifications of Bacillus subtilis Proteome with the Indication on Potential False Positive Peptides Supported by Predictions of Their Retention Times” (Journal of Biomedicine and Biotechnology, 2009)
